# Measured values published in patent publication US10105437B2, “Epitopes related to coeliac disease” (BTG International Limited, priority 2004, dated 2018).
# Test system: PBMC from HLA-DQ2+ coeliac subjects
# Assay: Interferon gamma ELISPOT, hordein 20mer first round library after barley challenge
# Assay type: cell-based, human
# Parameters: key to individual peptide showing maximal response in a single individual (asterisk): *: an asterisk indicates the eight individual peptides showing maximal response in a single individual
# Conditions: for number of subjects with > 70% maximal response / subjects with at least 40% maximal peptide response: 17 subjects
# Method: Peptides were initially dissolved in aqueous acetonitrile (50%). Peptides in aqueous acetonitrile were transferred to sterile 96-well plates and diluted in sterile PBS with 1 mM calcium (250 mcg/ml) and then incubated with tTG (25 mcg/ml) (Sigma T5398) for 6 h 37° C. and then stored frozen (−20° C.) until use.
# IFNγ ELISpot assays (Mabtech, Sweden) were performed in 96-well plates (MAIP S-45, Millipore) in which each well contained 25 mcl of peptide solution and 100 mcl of PBMC (2-8×10^5/well) in RPMI containing 10% heat inactivated human AB serum. After development and drying, IFNγ ELISpot plates were assessed using the MAIP automated ELISpot plate counter. Data was then analysed according to a novel algorithm (Expectation Maximization: EM) to define and quantify interferon-gamma responses to 9mer sequences contained within the peptide library (see FIG. 3 and below). 9mer peptides were then rationalised according to an algorithm that assumes redundancy in T-cell recognition, the “IterativeCluster” algorithm (see FIG. 4 and below), by allowing groups of amino acids with similar chemical properties at any one position in the 9mer, or for glutamate to replace glutamine at any position (assuming deamidation may have occurred).
# Secalin and hordein 20mer first round peptide libraries were assessed 3 days after completing rye (bread, 100 g/d for 3 days) or barley (boiled, 100 g/d for 3 days) challenge (“day 6” PBMC interferon gamma ELISPOT responses). Although iterative analysis using 2nd and 3rd round peptide libraries to define epitopes has not yet been performed, the 20mers pre-treated with tTG found to induce “potent” responses shared substantial structural similarity to the bioactive peptides identified after wheat challenge. […] The dominant (>70% maximal response) 20mer after rye challenge was usually […] (SEQ ID NO: 1769) (8/14 subjects), or occasionally […] (SEQ ID NO: 1770) (4/14), […] (SEQ ID NO: 1771) (1/14), […] (SEQ ID NO: 1772) (1/14) and/or […] (SEQ ID NO: 1773) (1/14). Additional peptides noted for greater than 40% maximal response in at least 1 subject include:
# Typically, the dominant peptides after barley challenge included one of six peptide motifs, or were one of eight other individual 20mers “dominant” in only one of 17 subjects after barley challenge. The six motifs identified:
# The barley hordein peptides showing at least 40% maximal peptide response in at least one subject include the following, wherein an asterisk indicates the eight individual peptides showing maximal response in a single individual: […]
Sequence,number of subjects with > 70% maximal response,subjects with at least 40% maximal peptide response,individual peptide showing maximal response in a single individual (asterisk)
PQGSEQIIPQQPFPLQPQPF (Description of Artificial Sequence: Synthetic gluten peptide) [barley hordein 20mer],1,2/17,
PQPFPQQPIPQQPQPYPQQP (Description of Artificial Sequence: Synthetic gluten peptide) [barley hordein 20mer],2,6/17,
PQPYPQQPQPFPQQPPFCQQ (Description of Artificial Sequence: Synthetic gluten peptide) [barley hordein 20mer],1,1/17,*
PQQASPLQPQPQQASPLQPQ (Description of Artificial Sequence: Synthetic gluten peptide) [barley hordein 20mer],1,1/17,
PQQPPFWPQQPFPQQPPFGL (Description of Artificial Sequence: Synthetic gluten peptide) [barley hordein 20mer],1,1/17,*
PQQPQQPFPQPQQPFSWQPQ (Description of Artificial Sequence: Synthetic gluten peptide) [barley hordein 20mer],2,6/17,*
PQQPVPQQPQPYPQQPQPFP (Description of Artificial Sequence: Synthetic gluten peptide) [barley hordein 20mer],1,5/17,
PVLSQQQPCTQDQTPLLQEQ (Description of Artificial Sequence: Synthetic gluten peptide) [barley hordein 20mer],1,1/17,
PWQPQQPFPQPQEPIPQQPQ (Description of Artificial Sequence: Synthetic gluten peptide) [barley hordein 20mer],1,1/17,
PYLPEELSPQYQIPTPLQPQ (Description of Artificial Sequence: Synthetic gluten peptide) [barley hordein 20mer],1,1/17,*
QGSEQIIPQQPQQPFPLQPH (Description of Artificial Sequence: Synthetic gluten peptide) [barley hordein 20mer],3,7/17,*
QIPYVHPSILQQLNPCKVFL (Description of Artificial Sequence: Synthetic gluten peptide) [barley hordein 20mer],1,1/17,
QKYPEQPQQPFPWQQPTIQL (Description of Artificial Sequence: Synthetic gluten peptide) [barley hordein 20mer],1,1/17,
QPFPQPQQPFPWQPQQPFPQ (Description of Artificial Sequence: Synthetic gluten peptide) [barley hordein 20mer],2,10/17,
QPFPTPQQFFPYLPQQTFPP (Description of Artificial Sequence: Synthetic gluten peptide) [barley hordein 20mer],1,4/17,
QPQPYPQQPQPYPQQPFQPQ (Description of Artificial Sequence: Synthetic gluten peptide) [barley hordein 20mer],2,7/17,
QPQQPFPQPQQPIPYQPQQP (Description of Artificial Sequence: Synthetic gluten peptide) [barley hordein 20mer],1,4/17,*
QPQQPQPFPQQPVPQQPQPY (Description of Artificial Sequence: Synthetic gluten peptide) [barley hordein 20mer],2,5/17,
QQPFPLQPQQPFPQPQPFPQ (Description of Artificial Sequence: Synthetic gluten peptide) [barley hordein 20mer],0,1/17,
QQPFPQPQQPIPYQPQQPFN (Description of Artificial Sequence: Synthetic gluten peptide) [barley hordein 20mer],1,5/17,
QQPQPFSQQPIPQQPQPYPQ (Description of Artificial Sequence: Synthetic gluten peptide) [barley hordein 20mer],8,9/17,
QQQPFPQQPIPQQPQPYPQQ (Description of Artificial Sequence: Synthetic gluten peptide) [barley hordein 20mer],2,8/17,
QSQQQFPQPQQPFPQQPQQP (Description of Artificial Sequence: Synthetic gluten peptide) [barley hordein 20mer],0,1/17,
RQLPKYIIPQQPQQPFLLQP (Description of Artificial Sequence: Synthetic gluten peptide) [barley hordein 20mer],1,1/17,
SPLQPQQPFPQGSEQIIPQQ (Description of Artificial Sequence: Synthetic gluten peptide) [barley hordein 20mer],0,1/17,
VSPHPGQQTTVSPHQGQQTT (Description of Artificial Sequence: Synthetic gluten peptide) [barley hordein 20mer],1,1/17,*
WQPQQPFPQPQQPFPLQPQQ (Description of Artificial Sequence: Synthetic gluten peptide) [barley hordein 20mer],5,9/17,*
